Laboratory results published in patent US20250250298A1, “ONCOLYTIC PEPTIDE AND USE THEREOF” (Rise Biopharmaceuticals Inc., priority 2022, published 2025).
Where a SMILES comes first, the peptide text is derived from it.

Experiments:
[1] = tested on: EO771 (Murine mammary adenocarcinoma); experiment: MTT cytotoxicity, EO771; type: cell-based; settings: EO771, 24 hours incubation
Source text: (§1) The MTT assay is a colorimetric method for measuring the activity of enzymes in living cells that reduces Thiazolyl blue tetrazolium bromide (MTT) to formazan dyes showing a purple color. In this embodiment, a colorimetric 3-(4.5-dimethylthiazol-2-yl)-2.5-diphenyltetrazodium bromide (MTT) viability assay was used to assess the in vitro cytotoxicity of oncolytic peptides.
(§2) The half inhibition concentration (IC50) is the concentration required by the oncolytic peptides to reach fifty percent inhibition. In one embodiment, the oncolytic peptides were used for IC50 test via MTT colorimetric assay.
(§3) Human lung cancer lines PC9 and A549 and murine pancreatic cancer cell line Panc02 were cultured in RPMI medium supplemented with 10% fetal bovine serum and antibiotic in this embodiment. Additionally, murine hepatoma cell line Hepa 1-6, murine melanoma cell line B16-F10, murine fibrosarcoma cell line MN-11, murine mammary cancer cell line E0771 and human diploid fibroblast (HFW) were cultured in DMEM medium supplemented with 10% fetal bovine serum and antibiotic. Cells were cultured in a humidified incubator containing 5% CO2 at 37° C.
(§4) All cancer cell lines were seeded in a 96-well plate with a concentration of 5000-8000 cells/100 μl/well and incubated for 24 hrs. After medium was removed, 100 μl fresh medium containing peptide (ranging from 50 μM to 0.8 μM) was added to the wells. Following 24 hours incubation, fresh medium with MTT (0.5 mg/ml) was replaced and incubated for 3 hours. After medium/MTT was removed, DMSO was added at 100 μl for dissolving the formazan crystal. Cell survival rate was calculated by measuring the absorbance at 540 nm using a Multi-labeled Microplate Reader (Sunrise™, TECAN).

[2] = tested on: HUVEC (Human Umbilical Vein Endothelial (Cell)); experiment: MTT cytotoxicity, HUVEC; type: cell-based; settings: 24 hours incubation
Source text: as §1, §2, §4

[3] = tested on: A549 (Human non-small cell lung cancer cell); experiment: MTT cytotoxicity, A549; type: cell-based; settings: A549, 24 hours incubation
Source text: as §1, §2, §3, §4

[4] = tested on: MN-11 (Murine fibrosarcoma); experiment: MTT cytotoxicity, MN-11; type: cell-based; settings: MN-11, 24 hours incubation
Source text: as §1, §2, §3, §4

RBC (Human blood cell) = experiment: Cytotoxicity, RBC; type: cell-based
Source text: as §2

[5] = tested on: HCT-15 (Human colorectal cancer); experiment: MTT cytotoxicity, HCT-15; type: cell-based; settings: HCT-15, 24 hours incubation
Source text: as §1, §2, §4

HFW (Human fibroblast) = experiment: MTT cytotoxicity, HFW; type: cell-based; settings: 24 hours incubation
Source text: as §1, §2, §3, §4

[6] = tested on: Hepa I-6 (Murine hepatocellular carcinoma); experiment: MTT cytotoxicity, Hepa 1-6; type: cell-based; settings: Hepa I-6, 24 hours incubation
Source text: as §1, §2, §3, §4

[7] = tested on: NCI-N87 (Human gastric carcinoma); experiment: MTT cytotoxicity, NCI-N87; type: cell-based; settings: NCI-N87, 24 hours incubation
Source text: as §1, §2, §4

[8] = tested on: SAS (Human tongue carcinoma); experiment: MTT cytotoxicity, SAS; type: cell-based; settings: 24 hours incubation
Source text: as §1, §2, §4

Panc02 = experiment: MTT cytotoxicity, Panc02; type: cell-based, murine; settings: Panc02, 24 hours incubation
Source text: as §1, §2, §3, §4

[9] = Peptide stability in serum; type: in vitro ADME; settings: 25% (vol/vol) bovine calf serum
Method: Since this kind of peptide is highly toxic, the hope is that the peptide can be decomposed after inducing cancer cells to release danger-associated molecular patterns (DAMPs), and will not stay in the body for too long. After exposure to 25% (vol/vol) bovine calf serum, the residues of peptides were analyzed by liquid chromatography, and the stability at different time points was calculated.

[10] = tested on: A375 (human malignant melanoma); experiment: MTT cytotoxicity, A375; type: cell-based; settings: A375, 24 hours incubation
Source text: as §1, §2, §4

[11] = tested on: C9 (Human oral cancer cell); experiment: MTT cytotoxicity, C9; type: cell-based; settings: C9, 24 hours incubation
Source text: as §1, §2, §4

[12] = tested on: B16-F10 (Murine skin malignant melanoma); experiment: MTT cytotoxicity, B16-F10; type: cell-based; settings: B16-F10, 24 hours incubation
Source text: as §1, §2, §3, §4

[13] = tested on: HepG2 Cancer Cells (Human hepatocellular carcinoma); experiment: MTT cytotoxicity, HepG2; type: cell-based; settings: HepG2, 24 hours incubation
Source text: as §1, §2, §4

[14] = tested on: OECM-1 (Human oral cancer cell); experiment: MTT cytotoxicity, OECM-1; type: cell-based; settings: OECM-1, 24 hours incubation
Source text: as §1, §2, §4

[15] = tested on: PC9 (Human non-small cell lung cancer cell); experiment: MTT cytotoxicity, PC9; type: cell-based; settings: PC9, 24 hours incubation
Source text: as §1, §2, §3, §4

CC(C)C[C@H](NC(=O)[C@H](Cc1ccc2ccccc2c1)NC(=O)[C@H](CCCCN)NC(=O)[C@H](CC(C)C)NC(=O)[C@H](Cc1c[nH]c2ccccc12)NC(=O)[C@H](CCCCN)NC(=O)[C@H](CCCNC(=N)N)NC(=O)[C@H](Cc1c[nH]c2ccccc12)NC(=O)[C@H](CCCCN)NC(=O)[C@H](CCCCN)NC(=O)[C@H](CCCNC(=N)N)NC(=O)[C@H](CCCNC(=N)N)NC(=O)[C@H](CCCCN)NC(=O)[C@H](CCCCN)NC(=O)[C@H](CCCCN)NC(=O)[C@@H](N)CCCCN)C(=O)N[C@@H](C)C(=O)N[C@@H](CCCCN)C(=O)N[C@@H](CCCCN)C(N)=O [SEQ ID NO: 8, KKKK-RR-KK-WRK-WLK-Nal-LA-KK-NH2] (HELM PEPTIDE1{K.K.K.K.R.R.K.K.W.R.K.W.L.K.[O=C([C@H](Cc1ccc2ccccc2c1)N[*:1])[*:2]].L.A.K.K.[am]}$$$$V2.0; N-terminus assumed)
IC50 [1]: 3.3 µM | IC50 [2]: 5.6 µM | IC50 [3]: 2.3 µM | IC50 [4]: 3.49 µM | IC50 (RBC (Human blood cell)): 37.6 µM | IC50 [5]: 3.16 µM | IC50 (HFW (Human fibroblast)): 7.29 µM | IC50 [6]: 3.59 µM | IC50 [7]: 3.16 µM | IC50 [8]: 3.98 µM | IC50 (Panc02): 2.66 µM | Serum stability (residual peptide) ([9]; 0 hr): 100.00% | remaining at 0.5 h ([9]; 0.5 hr, read-out: Serum stability (residual peptide)): 105% | remaining at 1 h ([9]; 1 hr, read-out: Serum stability (residual peptide)): 77.4% | remaining at 2 h ([9]; 2 hr, read-out: Serum stability (residual peptide)): 106% | remaining at 4 h ([9]; 4 hr, read-out: Serum stability (residual peptide)): 70.4% | remaining at 6 h ([9]; 6 hr, read-out: Serum stability (residual peptide)): 71.3% | remaining at 8 h ([9]; 8 hr, read-out: Serum stability (residual peptide)): 66.5% | IC50 [10]: 3.59 µM | IC50 [11]: 5.3 µM | IC50 [12]: 9.73 µM | IC50 [13]: 8.18 µM | IC50 [14]: 5.97 µM | IC50 [15]: 1.58 µM
